# Experimental data published in ChEMBL document CHEMBL5370623, “Discovery of Quinazoline-2,4(1H,3H)-dione Derivatives Containing a Piperizinone Moiety as Potent PARP-1/2 Inhibitors─Design, Synthesis, In Vivo Antitumor Activity, and X-ray Crystal Structure Analysis” (J Med Chem, 2023).
# Experiments:
# [1] = Tmax in BALB/c mouse at 25 mg/kg, po measured upto 24 hrs by LC-MS/MS analysis; assay type: ADME, organism-based; details: in vivo
# [2] = target: T1, Poly [ADP-ribose] polymerase 1 (Homo sapiens, UniProt P09874); assay: Inhibition of human recombinant PARP1 expressed in Escherichia coli BL21(DE3) incubated for 1 hr by ELISA assay
# T1 sequence (P09874 whole entry): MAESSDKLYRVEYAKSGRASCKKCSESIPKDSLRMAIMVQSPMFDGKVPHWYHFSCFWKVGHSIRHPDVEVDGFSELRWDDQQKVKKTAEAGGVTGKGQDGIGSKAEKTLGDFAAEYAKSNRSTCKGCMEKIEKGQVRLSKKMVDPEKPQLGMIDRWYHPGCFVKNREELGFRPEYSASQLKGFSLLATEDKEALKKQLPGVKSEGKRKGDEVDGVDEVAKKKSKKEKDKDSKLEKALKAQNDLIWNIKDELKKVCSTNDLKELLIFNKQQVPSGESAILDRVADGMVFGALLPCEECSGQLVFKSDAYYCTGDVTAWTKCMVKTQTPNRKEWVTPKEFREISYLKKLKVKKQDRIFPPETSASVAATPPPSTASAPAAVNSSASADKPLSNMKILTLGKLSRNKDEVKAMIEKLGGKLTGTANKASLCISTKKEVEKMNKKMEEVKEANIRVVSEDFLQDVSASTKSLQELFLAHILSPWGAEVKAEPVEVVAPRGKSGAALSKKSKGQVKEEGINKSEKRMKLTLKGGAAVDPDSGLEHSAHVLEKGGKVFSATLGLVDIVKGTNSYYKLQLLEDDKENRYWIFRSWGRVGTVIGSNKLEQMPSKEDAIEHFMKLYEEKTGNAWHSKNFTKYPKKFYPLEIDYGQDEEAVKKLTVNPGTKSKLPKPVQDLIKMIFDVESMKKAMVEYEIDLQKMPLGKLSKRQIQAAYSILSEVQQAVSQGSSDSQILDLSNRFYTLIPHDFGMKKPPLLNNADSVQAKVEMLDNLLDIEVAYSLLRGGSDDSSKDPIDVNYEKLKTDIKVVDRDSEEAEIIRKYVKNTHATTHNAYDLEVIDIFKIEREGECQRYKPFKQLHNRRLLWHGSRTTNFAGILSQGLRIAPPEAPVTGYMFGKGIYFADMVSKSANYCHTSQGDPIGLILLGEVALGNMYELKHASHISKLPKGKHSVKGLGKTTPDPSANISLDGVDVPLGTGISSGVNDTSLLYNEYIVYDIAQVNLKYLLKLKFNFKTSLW
# [3] = target: T2, Poly [ADP-ribose] polymerase 2 (Homo sapiens, UniProt Q9UGN5); assay: Inhibition of human recombinant PARP2 expressed in Escherichia coli BL21(DE3) incubated for 1 hr by ELISA assay
# T2 sequence (Q9UGN5 whole entry): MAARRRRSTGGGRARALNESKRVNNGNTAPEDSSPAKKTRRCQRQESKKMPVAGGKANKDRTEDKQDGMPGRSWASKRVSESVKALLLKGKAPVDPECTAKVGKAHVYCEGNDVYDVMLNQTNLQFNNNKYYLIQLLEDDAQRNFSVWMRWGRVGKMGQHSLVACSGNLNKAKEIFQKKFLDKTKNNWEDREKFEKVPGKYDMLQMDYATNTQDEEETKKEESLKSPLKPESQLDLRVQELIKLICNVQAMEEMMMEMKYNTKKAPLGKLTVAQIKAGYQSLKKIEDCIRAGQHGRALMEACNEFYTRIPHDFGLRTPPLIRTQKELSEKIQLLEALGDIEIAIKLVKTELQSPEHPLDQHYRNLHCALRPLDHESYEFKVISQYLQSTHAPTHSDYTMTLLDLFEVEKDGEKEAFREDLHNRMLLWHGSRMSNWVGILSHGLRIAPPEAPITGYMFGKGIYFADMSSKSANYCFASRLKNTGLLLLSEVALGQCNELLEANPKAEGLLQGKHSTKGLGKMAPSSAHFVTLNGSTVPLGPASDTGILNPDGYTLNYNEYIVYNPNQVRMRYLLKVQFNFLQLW
# [4] = Aqueous solubility of the compound; assay type: physicochemical
# [5] = target: T1, Poly [ADP-ribose] polymerase 1; assay: Inhibition of human recombinant N-terminal GST-tagged PARP1 (2 to 1014(end) residues) expressed in Sf9 cells
# [6] = target: Protein mono-ADP-ribosyltransferase PARP3 (Homo sapiens, UniProt Q9Y6F1); assay: Inhibition of human recombinant N-terminal GST-tagged PARP3 (2 to 540(end) residues) expressed in Sf9 cells
# Chain of Protein mono-ADP-ribosyltransferase PARP3 (Q9Y6F1 whole entry): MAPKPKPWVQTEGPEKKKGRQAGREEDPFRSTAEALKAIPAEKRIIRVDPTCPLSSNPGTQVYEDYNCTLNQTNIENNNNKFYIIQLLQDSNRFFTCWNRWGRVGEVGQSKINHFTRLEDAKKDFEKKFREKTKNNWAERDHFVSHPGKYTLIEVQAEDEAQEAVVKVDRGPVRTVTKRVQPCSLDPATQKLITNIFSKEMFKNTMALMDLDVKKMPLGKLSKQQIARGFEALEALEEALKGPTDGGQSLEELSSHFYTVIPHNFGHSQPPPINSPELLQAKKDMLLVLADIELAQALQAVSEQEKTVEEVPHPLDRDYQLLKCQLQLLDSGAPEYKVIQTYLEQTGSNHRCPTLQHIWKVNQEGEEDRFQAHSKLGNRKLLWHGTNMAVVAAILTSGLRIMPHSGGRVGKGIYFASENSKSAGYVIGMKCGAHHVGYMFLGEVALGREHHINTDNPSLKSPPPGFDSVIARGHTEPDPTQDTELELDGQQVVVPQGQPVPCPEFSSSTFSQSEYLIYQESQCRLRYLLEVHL
# [7] = target: Protein mono-ADP-ribosyltransferase PARP6 (Homo sapiens, UniProt Q2NL67); assay: Inhibition of human recombinant N-terminal GST-tagged PARP6 (1 to 630(end) residues) expressed in Sf9 cells
# Chain of Protein mono-ADP-ribosyltransferase PARP6 (Q2NL67 whole entry): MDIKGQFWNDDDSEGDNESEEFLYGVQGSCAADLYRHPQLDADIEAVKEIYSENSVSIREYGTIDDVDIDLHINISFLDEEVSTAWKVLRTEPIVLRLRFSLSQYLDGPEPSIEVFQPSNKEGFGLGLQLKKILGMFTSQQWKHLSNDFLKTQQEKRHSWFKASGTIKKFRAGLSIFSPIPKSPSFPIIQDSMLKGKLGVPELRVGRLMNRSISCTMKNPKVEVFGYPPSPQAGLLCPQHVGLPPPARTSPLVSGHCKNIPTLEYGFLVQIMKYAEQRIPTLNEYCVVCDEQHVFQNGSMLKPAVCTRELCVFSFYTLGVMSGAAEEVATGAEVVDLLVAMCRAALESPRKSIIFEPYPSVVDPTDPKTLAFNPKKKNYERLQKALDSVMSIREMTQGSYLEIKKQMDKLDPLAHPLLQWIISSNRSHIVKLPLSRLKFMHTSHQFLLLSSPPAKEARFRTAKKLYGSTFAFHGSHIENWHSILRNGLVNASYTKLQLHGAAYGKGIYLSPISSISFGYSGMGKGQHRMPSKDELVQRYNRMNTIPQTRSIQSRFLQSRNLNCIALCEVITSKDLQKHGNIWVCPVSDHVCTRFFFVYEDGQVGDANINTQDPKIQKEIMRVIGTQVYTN
# [8] = target: Protein mono-ADP-ribosyltransferase TIPARP (Homo sapiens, UniProt Q7Z3E1); assay: Inhibition of human recombinant N-terminal FLAG-tagged PARP7 (400 to 657(end) residues) expressed in Sf9 cells
# Chain of Protein mono-ADP-ribosyltransferase TIPARP (Q7Z3E1 whole entry): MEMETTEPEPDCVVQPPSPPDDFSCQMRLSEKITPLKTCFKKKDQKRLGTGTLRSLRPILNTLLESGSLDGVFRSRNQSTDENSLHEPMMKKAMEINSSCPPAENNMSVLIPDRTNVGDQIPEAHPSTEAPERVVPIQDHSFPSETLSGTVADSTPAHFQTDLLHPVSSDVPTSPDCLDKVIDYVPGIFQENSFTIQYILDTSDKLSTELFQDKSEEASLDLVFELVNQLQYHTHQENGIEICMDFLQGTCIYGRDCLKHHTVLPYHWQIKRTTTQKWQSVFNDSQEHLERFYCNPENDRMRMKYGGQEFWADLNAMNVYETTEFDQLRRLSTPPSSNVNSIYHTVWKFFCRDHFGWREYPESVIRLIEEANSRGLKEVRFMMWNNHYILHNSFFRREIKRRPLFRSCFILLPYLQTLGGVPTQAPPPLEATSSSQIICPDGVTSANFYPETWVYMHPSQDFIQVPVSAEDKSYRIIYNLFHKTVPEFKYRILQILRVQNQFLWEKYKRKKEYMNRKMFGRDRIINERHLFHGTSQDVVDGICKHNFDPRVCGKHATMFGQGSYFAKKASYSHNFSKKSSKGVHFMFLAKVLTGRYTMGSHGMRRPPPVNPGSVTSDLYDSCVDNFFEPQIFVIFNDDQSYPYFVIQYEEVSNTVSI
# [9] = target: Protein mono-ADP-ribosyltransferase PARP8 (Homo sapiens, UniProt Q8N3A8); assay: Inhibition of PARP8 (unknown origin)
# Chain of Protein mono-ADP-ribosyltransferase PARP8 (Q8N3A8 whole entry): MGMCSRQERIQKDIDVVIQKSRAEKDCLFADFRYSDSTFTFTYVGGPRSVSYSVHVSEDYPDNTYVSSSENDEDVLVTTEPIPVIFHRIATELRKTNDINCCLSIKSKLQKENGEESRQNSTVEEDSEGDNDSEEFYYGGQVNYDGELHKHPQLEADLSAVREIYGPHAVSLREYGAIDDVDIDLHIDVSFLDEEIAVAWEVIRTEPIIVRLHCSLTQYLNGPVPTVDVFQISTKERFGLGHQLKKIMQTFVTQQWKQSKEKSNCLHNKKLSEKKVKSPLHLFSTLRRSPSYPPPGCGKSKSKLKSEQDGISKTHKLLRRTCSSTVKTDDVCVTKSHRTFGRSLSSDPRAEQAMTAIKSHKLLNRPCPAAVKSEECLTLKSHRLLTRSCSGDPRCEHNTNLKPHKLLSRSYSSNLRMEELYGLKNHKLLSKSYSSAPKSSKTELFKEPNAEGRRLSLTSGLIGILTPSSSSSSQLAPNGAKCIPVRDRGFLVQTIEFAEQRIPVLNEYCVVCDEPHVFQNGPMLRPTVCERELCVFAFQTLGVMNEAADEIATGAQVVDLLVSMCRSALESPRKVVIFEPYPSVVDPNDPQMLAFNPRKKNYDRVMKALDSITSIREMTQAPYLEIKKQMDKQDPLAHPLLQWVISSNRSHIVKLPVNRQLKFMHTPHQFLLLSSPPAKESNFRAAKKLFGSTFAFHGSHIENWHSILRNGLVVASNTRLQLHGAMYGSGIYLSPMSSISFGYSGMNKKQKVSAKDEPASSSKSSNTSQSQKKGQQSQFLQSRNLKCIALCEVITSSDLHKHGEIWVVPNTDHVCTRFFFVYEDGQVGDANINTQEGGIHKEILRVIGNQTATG
# [10] = Binding affinity to cat PARP1 assessed as dissociation constant by SPR assay; design: species or system Felis catus
# [11] = Binding affinity to cat PARP2 assessed as dissociation constant by SPR assay; design: species or system Felis catus
# MDA-MB-436 [12] = assay: Antitumor activity against BRCAl-deficient human MDA-MB-436 cells xenografted in Balb/c athymic nude mouse assessed as tumor growth inhibition at 1.1 mg/kg, po qd measured after 23 days; assay type: functional; details: MDA-MB-436, 552 h, time 23 day, read-out: TGI
# MDA-MB-436 [13] = assay: Antitumor activity against BRCAl-deficient human MDA-MB-436 cells xenografted in Balb/c athymic nude mouse assessed as tumor growth inhibition at 3.3 mg/kg, po qd measured after 23 days; assay type: functional; details: MDA-MB-436, 552 h, time 23 day, read-out: TGI
# MDA-MB-436 [14] = assay: Antitumor activity against BRCAl-deficient human MDA-MB-436 cells xenografted in Balb/c athymic nude mouse assessed as tumor growth inhibition at 10 mg/kg, po qd measured after 23 days; assay type: functional; details: MDA-MB-436, 552 h, time 23 day, read-out: TGI
# [15] = Toxicity in Balb/c athymic nude mouse xenografted with BRCAl-deficient human MDA-MB-436 cells assessed as change in body weight at 1.1 to 10 mg/kg, po qd measured after 23 days; assay type: organism-based; details: in vivo, 552 h, dose 1.1-10 mg/kg, time 23 day
# DU-145 [16] = assay: Antitumor activity against PTEN-deficient human DU-145 cells xenografted in Balb/c athymic nude mouse assessed as tumor growth inhibition at 5 mg/kg, po qd measured after 14 days; assay type: functional; details: DU-145, 336 h, time 14 day, read-out: TGI
# DU-145 [17] = assay: Antitumor activity against PTEN-deficient human DU-145 cells xenografted in Balb/c athymic nude mouse assessed as tumor growth inhibition at 10 mg/kg, po qd measured after 14 days; assay type: functional; details: DU-145, 336 h, time 14 day, read-out: TGI
# DU-145 [18] = assay: Antitumor activity against PTEN-deficient human DU-145 cells xenografted in Balb/c athymic nude mouse assessed as tumor growth inhibition at 20 mg/kg, po qd measured after 14 days; assay type: functional; details: DU-145, 336 h, time 14 day, read-out: TGI
# [19] = Toxicity in Balb/c athymic nude mouse xenografted with PTEN-deficient human DU145 cells assessed as change in body weight at 5 to 20 mg/kg, po qd measured after 14 days; assay type: organism-based, DU-145; details: in vivo, 336 h, dose 5-20 mg/kg, time 14 day
# MC-38 = assay: Antitumor activity against mouse MC38 cells implanted in C57BL/6 mouse assessed as tumor growth inhibition at 10 mg/kg, po qd measured after 17 days; assay type: functional; details: MC-38, 408 h, time 17 day, read-out: TGI
# [20] = Toxicity in C57BL/6 mouse implanted with mouse MC38 cells assessed as change in body weight at 10 mg/kg, po qd measured after 17 days; assay type: organism-based, MC-38; details: in vivo, 408 h, time 17 day
# [21] = Half life in BALB/c mouse at 25 mg/kg, po measured upto 24 hrs by LC-MS/MS analysis; assay type: ADME, organism-based; details: in vivo
# [22] = Half life in BALB/c mouse at 2.5 mg/kg, iv measured upto 24 hrs by LC-MS/MS analysis; assay type: ADME, organism-based; details: in vivo
# [23] = Tmax in BALB/c mouse at 2.5 mg/kg, iv measured upto 24 hrs by LC-MS/MS analysis; assay type: ADME, organism-based; details: in vivo
# [24] = Cmax in BALB/c mouse at 25 mg/kg, po measured upto 24 hrs by LC-MS/MS analysis; assay type: ADME, organism-based; design: time < 24 hrs, dose 25 mg/kg, route po; details: in vivo
# [25] = Cmax in BALB/c mouse at 2.5 mg/kg, iv measured upto 24 hrs by LC-MS/MS analysis; assay type: ADME, organism-based; design: time < 24 hrs, dose 2.5 mg/kg, route iv; details: in vivo
# [26] = AUC (0 to t) in BALB/c mouse at 25 mg/kg, po measured upto 24 hrs by LC-MS/MS analysis; assay type: ADME, organism-based; design: time < 24 hrs, dose 25 mg/kg, route po; details: in vivo
# [27] = AUC (0 to t) in BALB/c mouse at 2.5 mg/kg, iv measured upto 24 hrs by LC-MS/MS analysis; assay type: ADME, organism-based; design: time < 24 hrs, dose 2.5 mg/kg, route iv; details: in vivo
# [28] = AUC (0 to infinity) in BALB/c mouse at 25 mg/kg, po measured upto 24 hrs by LC-MS/MS analysis; assay type: ADME, organism-based; design: dose 25 mg/kg, time < 24 hrs, route po; details: in vivo
# [29] = AUC (0 to infinity) in BALB/c mouse at 2.5 mg/kg, iv measured upto 24 hrs by LC-MS/MS analysis; assay type: ADME, organism-based; design: dose 2.5 mg/kg, time < 24 hrs, route iv; details: in vivo
# [30] = MRT (0 to t) in BALB/c mouse at 25 mg/kg, po measured upto 24 hrs by LC-MS/MS analysis; assay type: ADME, organism-based; details: in vivo
# [31] = MRT (0 to t) in BALB/c mouse at 2.5 mg/kg, iv measured upto 24 hrs by LC-MS/MS analysis; assay type: ADME, organism-based; details: in vivo
# [32] = MRT (0 to infinity) in BALB/c mouse at 25 mg/kg, po measured upto 24 hrs by LC-MS/MS analysis; assay type: ADME, organism-based; details: in vivo
# [33] = MRT (0 to infinity) in BALB/c mouse at 2.5 mg/kg, iv measured upto 24 hrs by LC-MS/MS analysis; assay type: ADME, organism-based; details: in vivo
# [34] = Oral bioavailability in BALB/c mouse at 25 mg/kg measured upto 24 hrs by LC-MS/MS analysis; assay type: ADME, organism-based; details: in vivo
# [35] = target: T2, Poly [ADP-ribose] polymerase 2
# Description: Inhibition of human recombinant N-terminal GST-tagged PARP2 (2 to 583(end) residues) expressed in Sf9 cells
compound,measurement,setting,value
CCC(CC)N1CCN(C(=O)c2cc(Cn3c(=O)[n-]c(=O)c4ccccc43)ccc2F)CC1=O.[Na+],Tmax,[1],4.8 min
same,IC50,[2],940 pM
same,IC50,[3],870 pM
same,solubility,[4],223 µg/mL
same,IC50,[5],940 pM
same,IC50,[6],51000 pM
same,IC50,[7],~280000 pM
same,IC50,[8],210 pM
same,IC50,[9],13000 pM
same,Kd,[10],830 pM
same,Kd,[11],750 pM
same,inhibition in vivo at 1.1 mg/kg,MDA-MB-436 [12],54.6%
same,inhibition in vivo at 3.3 mg/kg,MDA-MB-436 [13],84.9%
same,inhibition in vivo at 10 mg/kg,MDA-MB-436 [14],94.3%
same,Activity,[15],Non-Toxic
same,inhibition in vivo at 5 mg/kg,DU-145 [16],69.2%
same,inhibition in vivo at 10 mg/kg,DU-145 [17],87%
same,inhibition in vivo at 20 mg/kg,DU-145 [18],91.2%
same,Activity,[19],Non-Toxic
same,inhibition in vivo at 10 mg/kg,MC-38,57.3%
same,Activity,[20],Non-Toxic
same,half-life,[21],16.2 min
same,half-life,[22],7.8 min
same,Tmax,[23],1.8 min
same,Cmax,[24],1540 ng/mL
same,Cmax,[25],2430 ng/mL
same,AUC(0-t) at 24 h,[26],612 ng·h/mL
same,AUC(0-t) at 24 h,[27],417 ng·h/mL
same,AUC(0-inf),[28],617 ng·h/mL
same,AUC(0-inf),[29],419 ng·h/mL
same,MRT last at 24 h,[30],18.6 min
same,MRT last at 24 h,[31],7.8 min
same,MRT inf,[32],19.2 min
same,MRT inf,[33],7.8 min
same,bioavailability,[34],14.7%
same,IC50,[35],870 pM
